Measured values reported in ChEMBL document CHEMBL1201862, “PubChem BioAssay data set” (2004).
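Method: 48-hour compound exposure of cells in 96-well plates, five concentrations, linear interpolation of endpoints. GI50 = concentration required for 50% inhibition of growth.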 The source made the active and inactive calls. Cut-off read from the data, not from the text of the source: active = GI50 up to about 1.1 µM and inactive = higher.

Columns and labels:
Assay in all cases: growth of human tumour cells (NCI), 48 h
[1] = system: SN12C
[2] = system: SNB-75
[3] = system: KM-20L2
[4] = system: UO-31
[5] = system: K562
[6] = system: HCT-15
[7] = system: ACHN
[8] = system: SK-MEL-2
[9] = system: RPMI-8226
[10] = system: SF-268
[11] = system: HCC 2998
[12] = system: LOX IMVI
[13] = system: SW-620
[14] = system: OVCAR-8
[15] = system: KM12
[16] = system: HT-29
[17] = system: HCT-116
[18] = system: A498
[19] = system: SF-539
[20] = system: RXF 631
[21] = system: IGROV-1
[22] = system: RXF 393
[23] = system: CCRF-CEM
[24] = system: Malme-3M
[25] = system: HOP-92
[26] = system: M19-MEL
[27] = system: NCI-H460
[28] = system: OVCAR-3
[29] = system: M14
[30] = system: SK-MEL-5
[31] = system: TK-10
[32] = system: OVCAR-4
[33] = system: COLO 205
[34] = system: 786-0
[35] = system: A549
[36] = system: HOP-18
[37] = system: HOP-62
[38] = system: U-251
[39] = system: SK-OV-3
[40] = system: MOLT-4
[41] = system: NCI-H23
[42] = system: DMS-114
[43] = system: HL-60
[44] = system: DMS-273
[45] = system: SF-295
[46] = system: CAKI-1
[47] = system: UACC-62
[48] = system: UACC-257
[49] = system: EKVX
[50] = system: SNB-78
[51] = system: SR
[52] = system: NCI-H226
[53] = system: LXFL 529
[54] = system: NCI-H522
[55] = system: DLD-1
[56] = system: SNB-19
[57] = system: SK-MEL-28
[58] = system: OVCAR-5
[59] = system: XF498

Compound: Cc1ccc(C(=O)/C=C/c2cccc([N+](=O)[O-])c2)cc1
- GI50 [1]: > 56.4 µM (inactive)
- GI50 [2]: > 47.3 µM (inactive)
- GI50 [3]: 36.6 µM (inactive)
- GI50 [4]: 46.9 µM (inactive)
- GI50 [5]: 28.4 µM (inactive)
- GI50 [6]: 21.6 µM
- GI50 [7]: > 100 µM (inactive)
- GI50 [8]: > 100 µM (inactive)
- GI50 [9]: 26.6 µM (inactive)
- GI50 [10]: > 67.5 µM (inactive)
- GI50 [11]: > 54.7 µM (inactive)
- GI50 [12]: 66.4 µM (inactive)
- GI50 [13]: 21.6 µM (inactive)
- GI50 [14]: 42.9 µM (inactive)
- GI50 [15]: 24.1 µM (inactive)
- GI50 [16]: 29.3 µM (inactive)
- GI50 [17]: 16.6 µM (inactive)
- GI50 [18]: 98.2 µM (inactive)
- GI50 [19]: > 58.6 µM (inactive)
- GI50 [20]: > 73.8 µM (inactive)
- GI50 [21]: > 67.9 µM (inactive)
- GI50 [22]: > 43.7 µM (inactive)
- GI50 [23]: 29.1 µM (inactive)
- GI50 [24]: > 100 µM (inactive)
- GI50 [25]: > 100 µM (inactive)
- GI50 [26]: > 44.6 µM (inactive)
- GI50 [27]: > 100 µM (inactive)
- GI50 [28]: 54.1 µM (inactive)
- GI50 [29]: 98.6 µM (inactive)
- GI50 [30]: > 100 µM (inactive)
- GI50 [31]: > 100 µM (inactive)
- GI50 [32]: 46.9 µM (inactive)
- GI50 [33]: > 40.7 µM (inactive)
- GI50 [34]: 28.4 µM (inactive)
- GI50 [35]: > 100 µM (inactive)
- GI50 [36]: > 100 µM (inactive)
- GI50 [37]: > 100 µM (inactive)
- GI50 [38]: 22.2 µM (inactive)
- GI50 [39]: > 94.4 µM (inactive)
- GI50 [40]: 4.7 µM (inactive)
- GI50 [41]: > 74.5 µM (inactive)
- GI50 [42]: 46.5 µM (inactive)
- GI50 [43]: 36.6 µM (inactive)
- GI50 [44]: > 83.4 µM (inactive)
- GI50 [45]: 55.5 µM (inactive)
- GI50 [46]: > 92 µM (inactive)
- GI50 [47]: > 100 µM (inactive)
- GI50 [48]: > 100 µM (inactive)
- GI50 [49]: > 100 µM (inactive)
- GI50 [50]: > 100 µM (inactive)
- GI50 [51]: 18.6 µM (inactive)
- GI50 [52]: > 58.7 µM (inactive)
- GI50 [53]: 37.8 µM (inactive)
- GI50 [54]: 62.5 µM (inactive)
- GI50 [55]: 44 µM (inactive)
- GI50 [56]: 60.1 µM (inactive)
- GI50 [57]: > 100 µM (inactive)

Compound: CC(C)C/C(CC(=O)CCC(=O)Nc1ccccc1[N+](=O)[O-])=N\NC(=O)c1cc2ccccc2cc1O
- GI50 [1]: 50.6 µM (inactive)
- GI50 [2]: 37.7 µM (inactive)
- GI50 [3]: 32.1 µM (inactive)
- GI50 [4]: 37 µM (inactive)
- GI50 [5]: 25.9 µM (inactive)
- GI50 [6]: 31.6 µM
- GI50 [7]: 34.1 µM (inactive)
- GI50 [9]: 50 µM (inactive)
- GI50 [10]: 38 µM (inactive)
- GI50 [58]: 31 µM (inactive)
- GI50 [11]: 36.6 µM (inactive)
- GI50 [12]: 27 µM (inactive)
- GI50 [13]: 41.4 µM (inactive)
- GI50 [14]: 23.1 µM (inactive)
- GI50 [15]: 67.6 µM (inactive)
- GI50 [16]: 91.2 µM (inactive)
- GI50 [17]: 49.1 µM (inactive)
- GI50 [18]: 0.0357 µM (active)
- GI50 [19]: 27.1 µM (inactive)
- GI50 [20]: 31.2 µM (inactive)
- GI50 [21]: 26 µM (inactive)
- GI50 [22]: 9.79 µM (inactive)
- GI50 [23]: 9.14 µM (inactive)
- GI50 [24]: 42.6 µM (inactive)
- GI50 [25]: 64 µM (inactive)
- GI50 [26]: 24.2 µM (inactive)
- GI50 [27]: 33.7 µM (inactive)
- GI50 [28]: 26.7 µM (inactive)
- GI50 [29]: 26.6 µM (inactive)
- GI50 [30]: 28.1 µM (inactive)
- GI50 [31]: 51.2 µM (inactive)
- GI50 [33]: 28.6 µM (inactive)
- GI50 [34]: 36.8 µM (inactive)
- GI50 [35]: > 100 µM (inactive)
- GI50 [36]: 21.8 µM (inactive)
- GI50 [59]: 30.7 µM (inactive)
- GI50 [37]: 57.3 µM (inactive)
- GI50 [38]: 39.2 µM (inactive)
- GI50 [39]: 79.6 µM (inactive)
- GI50 [40]: 20.2 µM (inactive)
- GI50 [41]: 50.7 µM (inactive)
- GI50 [42]: 36.1 µM (inactive)
- GI50 [43]: 23.2 µM (inactive)
- GI50 [45]: 43.5 µM (inactive)
- GI50 [46]: 68.2 µM (inactive)
- GI50 [47]: 25.7 µM (inactive)
- GI50 [48]: 37 µM (inactive)
- GI50 [49]: 34 µM (inactive)
- GI50 [51]: 30.2 µM (inactive)
- GI50 [52]: 19.3 µM (inactive)
- GI50 [53]: 29.7 µM (inactive)
- GI50 [54]: 28.4 µM (inactive)
- GI50 [55]: 55.2 µM (inactive)
- GI50 [56]: 45.5 µM (inactive)
- GI50 [57]: > 100 µM (inactive)

Compound: Cn1ccnc1Cn1cc(-c2cccc(-c3cn[nH]c3)c2)cn1
- GI50 [1]: 69.7 µM (inactive)
- GI50 [2]: 23.2 µM (inactive)
- GI50 [3]: > 100 µM (inactive)
- GI50 [4]: 19.2 µM (inactive)
- GI50 [5]: 55 µM (inactive)
- GI50 [6]: 79.3 µM
- GI50 [7]: 28.1 µM (inactive)
- GI50 [8]: > 100 µM (inactive)
- GI50 [9]: > 100 µM (inactive)
- GI50 [10]: 44.6 µM (inactive)
- GI50 [11]: > 100 µM (inactive)
- GI50 [12]: 88.5 µM (inactive)
- GI50 [13]: 82.6 µM (inactive)
- GI50 [14]: > 100 µM (inactive)
- GI50 [15]: > 100 µM (inactive)
- GI50 [17]: 50.7 µM (inactive)
- GI50 [18]: 38.1 µM (inactive)
- GI50 [20]: > 100 µM (inactive)
- GI50 [22]: 24.8 µM (inactive)
- GI50 [23]: 58.5 µM (inactive)
- GI50 [25]: 50.1 µM (inactive)
- GI50 [26]: > 100 µM (inactive)
- GI50 [27]: > 100 µM (inactive)
- GI50 [28]: > 100 µM (inactive)
- GI50 [29]: > 100 µM (inactive)
- GI50 [30]: > 100 µM (inactive)
- GI50 [31]: 35.5 µM (inactive)
- GI50 [32]: 55.2 µM (inactive)
- GI50 [33]: > 100 µM (inactive)
- GI50 [34]: > 100 µM (inactive)
- GI50 [35]: 39.6 µM (inactive)
- GI50 [59]: > 100 µM (inactive)
- GI50 [37]: > 100 µM (inactive)
- GI50 [38]: 84.5 µM (inactive)
- GI50 [39]: 0.753 µM (active)
- GI50 [40]: 63.4 µM (inactive)
- GI50 [42]: > 100 µM (inactive)
- GI50 [43]: > 100 µM (inactive)
- GI50 [44]: > 100 µM (inactive)
- GI50 [45]: > 100 µM (inactive)
- GI50 [46]: 15.2 µM (inactive)
- GI50 [47]: 9.23 µM (inactive)
- GI50 [48]: > 100 µM (inactive)
- GI50 [49]: 14.6 µM (inactive)
- GI50 [50]: > 100 µM (inactive)
- GI50 [51]: 80 µM (inactive)
- GI50 [53]: 99.1 µM (inactive)
- GI50 [54]: 22.6 µM (inactive)
- GI50 [55]: > 100 µM (inactive)
- GI50 [56]: > 100 µM (inactive)
- GI50 [57]: > 100 µM (inactive)

Compound: COc1ccc2cc1Oc1ccc(cc1)C[C@@H]1c3cc(c(OC)cc3CCN1C)Oc1c(OC)c(OC)cc3c1[C@@H](C2)N(C)CC3 [PHAEANTHINE]
- GI50 [2]: 9.73 µM (inactive)
- GI50 [3]: 6.56 µM (inactive)
- GI50 [5]: 2.11 µM (inactive)
- GI50 [6]: 15.6 µM
- GI50 [7]: 19.2 µM (inactive)
- GI50 [9]: 15.6 µM (inactive)
- GI50 [10]: 25 µM (inactive)
- GI50 [11]: 15.8 µM (inactive)
- GI50 [14]: 14.9 µM (inactive)
- GI50 [17]: 2.83 µM (inactive)
- GI50 [18]: 18.5 µM (inactive)
- GI50 [19]: 10.9 µM (inactive)
- GI50 [20]: 14.1 µM (inactive)
- GI50 [21]: 19.8 µM (inactive)
- GI50 [22]: 1.6 µM (inactive)
- GI50 [23]: 14.3 µM (inactive)
- GI50 [25]: 13.2 µM (inactive)
- GI50 [27]: 14.3 µM (inactive)
- GI50 [28]: 15.7 µM (inactive)
- GI50 [29]: 1.98 µM (inactive)
- GI50 [30]: 17.2 µM (inactive)
- GI50 [31]: 19.2 µM (inactive)
- GI50 [59]: 6.98 µM (inactive)
- GI50 [37]: 18.9 µM (inactive)
- GI50 [38]: 13.2 µM (inactive)
- GI50 [39]: 24.7 µM (inactive)
- GI50 [41]: 17.6 µM (inactive)
- GI50 [43]: 16.7 µM (inactive)
- GI50 [44]: 17.3 µM (inactive)
- GI50 [45]: 17.5 µM (inactive)
- GI50 [48]: 14.9 µM (inactive)
- GI50 [50]: 16.6 µM (inactive)
- GI50 [51]: 15.9 µM (inactive)
- GI50 [53]: 18.7 µM (inactive)
- GI50 [54]: 15.7 µM (inactive)
- GI50 [55]: 24.8 µM (inactive)
- GI50 [56]: 16.9 µM (inactive)
